Broadly, the IC50 is the concentration at which inhibition is half-maximal. A high value points to lower potency.

This test deals with T1, cellular PARG (Homo sapiens, UniProt Q86W56).
T1 construct: endogenous in cells; host or cells: HeLa
In words: Nuclear PAR accumulation assay (immunofluorescence high-content imaging). It is filed as cell-based. To be noted: HeLa cells, 1 hour compound treatment then MMS 50 μg/mL for an additional hour. The protocol:
Compound IC50 values for inhibition of cellular PARG were determined using an immunofluorescence high-content imaging assay for nuclear PAR accumulation. HeLa cells were plated at 15,000 cells/well in a 96-well plate the day before compound treatment and then treated with varying concentrations of test compound and incubated for 1 hour at 37° C.+5% CO2. Following test compound treatment, methylmethane sulfonate (MMS) was added to a final concentration of 50 μg/mL and the cells were incubated for an additional hour. Following treatment, the cells were fixed with ice cold 95% methanol and the plates sealed and placed at −20° C. for 15 minutes. The cells were then washed once with phosphate buffered saline (PBS) and permeabilized with 0.1% Triton-X 100 for 20 minutes at room temperature. The cells were again washed once with PBS and incubated with an anti-poly-ADP ribose (PAR) monoclonal antibody (Millipore Part #AM80 clone 10H) diluted 1:1,000 in 5% fetal bovine serum +0.1% Tween-20+PBS overnight at 4° C. The cells were then washed three times with PBS before incubation with a fluorescently conjugated goat anti-mouse antibody (Invitrogen A32723) diluted 1:500 in 5% FBS+0.1% Tween-20+PBS for 1 hour at room temperature. The cells were again washed three times with PBS and the nuclei labeled by incubating with 1 μg/mL DAPI (4′,6-diamidino-2-phenylindole). Nuclear PAR accumulation was evaluated using high-content fluorescence microscopy. Four fields for each well were acquired at 20× magnification resulting in at least 1,000 cells analyzed per well. Using high-content software (CellReporterXpress) the nuclei were detected and segmented using the DAPI channel and the fluorescence intensity of the PAR-Alexa 488 channel was quantified within the nuclei regions. Both the average intensity per nucleus and percent PAR positive cells were quantified. Percent PAR positive cells were identified by having greater anti-PAR labeling above the threshold set with vehicle DMSO treated control cells. Percent inhibition of PARG by test compounds was calculated by normalizing the data to the 0.1% DMSO and reference compound control values, which represent 0% and 100% inhibition of enzymatic activity, respectively. Concentration-response-curves and IC50 values were generated using four parameter logistic curve fit software.

T1 sequence (Q86W56 whole entry): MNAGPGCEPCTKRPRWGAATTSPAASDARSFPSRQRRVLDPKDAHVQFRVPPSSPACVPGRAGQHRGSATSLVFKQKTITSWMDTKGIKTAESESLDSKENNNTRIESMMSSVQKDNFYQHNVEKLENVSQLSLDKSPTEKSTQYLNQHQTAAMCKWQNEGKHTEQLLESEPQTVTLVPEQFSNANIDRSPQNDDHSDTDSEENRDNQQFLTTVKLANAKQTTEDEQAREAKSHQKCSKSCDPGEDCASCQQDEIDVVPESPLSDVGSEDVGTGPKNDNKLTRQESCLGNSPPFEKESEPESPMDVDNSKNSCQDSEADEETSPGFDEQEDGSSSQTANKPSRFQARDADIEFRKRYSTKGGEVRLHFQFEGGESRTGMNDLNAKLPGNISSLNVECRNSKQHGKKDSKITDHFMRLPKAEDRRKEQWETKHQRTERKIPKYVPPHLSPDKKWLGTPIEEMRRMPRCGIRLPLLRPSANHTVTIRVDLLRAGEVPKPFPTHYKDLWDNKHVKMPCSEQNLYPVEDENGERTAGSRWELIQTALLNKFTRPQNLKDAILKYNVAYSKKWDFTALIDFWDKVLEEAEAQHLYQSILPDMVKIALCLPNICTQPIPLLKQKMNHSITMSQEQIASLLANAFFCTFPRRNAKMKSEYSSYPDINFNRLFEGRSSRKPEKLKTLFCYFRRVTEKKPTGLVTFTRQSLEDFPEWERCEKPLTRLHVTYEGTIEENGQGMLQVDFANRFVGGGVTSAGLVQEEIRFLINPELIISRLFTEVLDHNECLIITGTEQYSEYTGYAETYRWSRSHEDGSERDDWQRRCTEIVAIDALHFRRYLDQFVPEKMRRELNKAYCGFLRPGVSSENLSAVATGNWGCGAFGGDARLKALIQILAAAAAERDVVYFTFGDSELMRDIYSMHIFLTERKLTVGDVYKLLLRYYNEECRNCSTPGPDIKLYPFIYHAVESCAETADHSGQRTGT

The molecule `C[C@@H]1CN=C2N(CC3CC(=O)N(C)C3)C(=O)c3cc(S(=O)(=O)NC4(C)CC4)ccc3N21` (single isomer, unassigned) [Example 123] showed an IC50 of 1000 to 10000 nM.

`CC(c1cnn(C)c1)N1C(=O)c2cc(S(=O)(=O)NC3(C)CC3)ccc2N2C1=NC[C@H]2C` (single isomer, unassigned) [Example 125] returned an IC50 of 1000 to 10000 nM. In turn, `CC(c1cnn(C)c1)N1C(=O)c2cc(S(=O)(=O)NC3(C)CC3)ccc2N2C1=NC[C@H]2C` (single isomer, unassigned) [Example 126] registered an IC50 of 1000 to 10000 nM. As for `C[C@@H]1CN=C2N(Cc3cnn(CCO)c3)C(=O)c3cc(S(=O)(=O)NC4(C)CC4)ccc3N21` [Example 1, (R)-4-((1-(2-hydroxyethyl)-1H-pyrazol-4-yl)methyl)-1-methyl-N-(1-methylcyclopropyl)-5-oxo-1,2,4,5-tetrahydroimidazo[1,2-a]quinazoline-7-sulfonamide], the figure is 100 to 1000 nM.

As to `C[C@@H]1CN=C2N(Cc3cnn(C)c3)C(=O)c3cc(S(=O)(=O)NC4(C#N)CC4)ccc3N21` [Example 2, (R)—N-(1-cyanocyclopropyl)-1-methyl-4-((1-methyl-1H-pyrazol-4-yl)methyl)-5-oxo-1,2,4,5-tetrahydroimidazo[1,2-a]quinazoline-7-sulfonamide], the IC50 lay in the range of 100 to 1000 nM. Consider `C[C@@H]1CN=C2N(CC3CC3)C(=O)c3cc(S(=O)(=O)NC4(C)CC4)ccc3N21` [Example 3, (R)-4-(cyclopropylmethyl)-1-methyl-N-(1-methylcyclopropyl)-5-oxo-1,2,4,5-tetrahydroimidazo[1,2-a]quinazoline-7-sulfonamide], for which the IC50 fell in the range of 100 to 1000 nM. The figure for `C[C@@H]1CN=C2N(Cc3cccnc3)C(=O)c3cc(S(=O)(=O)NC4(C)CC4)ccc3N21` [Example 4, (R)-1-methyl-N-(1-methylcyclopropyl)-5-oxo-4-(pyridin-3-ylmethyl)-1,2,4,5-tetrahydroimidazo[1,2-a]quinazoline-7-sulfonamide] is 100 to 1000 nM; for `Cc1cc(CN2C(=O)c3cc(S(=O)(=O)NC4(C)CC4)ccc3N3C2=NC[C@H]3C)n[nH]1` [Example 5, (R)-1-methyl-4-((5-methyl-1H-pyrazol-3-yl)methyl)-N-(1-methylcyclopropyl)-5-oxo-1,2,4,5-tetrahydroimidazo[1,2-a]quinazoline-7-sulfonamide] it is 100 to 1000 nM. As for `C[C@@H]1CN=C2N(Cc3cn[nH]c3)C(=O)c3cc(S(=O)(=O)NC4(C)CC4)ccc3N21` [Example 6, (R)-4-((1H-pyrazol-4-yl)methyl)-1-methyl-N-(1-methylcyclopropyl)-5-oxo-1,2,4,5-tetrahydroimidazo[1,2-a]quinazoline-7-sulfonamide], the figure is 100 to 1000 nM. The figure for `Cc1noc(C)c1CN1C(=O)c2cc(S(=O)(=O)NC3(C)CC3)ccc2N2C1=NC[C@H]2C` [Example 8, (R)-4-((3,5-dimethylisoxazol-4-yl)methyl)-1-methyl-N-(1-methylcyclopropyl)-5-oxo-1,2,4,5-tetrahydroimidazo[1,2-a]quinazoline-7-sulfonamide] is at most 100 nM; for `C#C[C@H]1CN=C2N(Cc3cc(C)no3)C(=O)c3cc(S(=O)(=O)NC4(C)CC4)ccc3N21` [Example 9, (S)-1-ethynyl-N-(1-methylcyclopropyl)-4-((3-methylisoxazol-5-yl)methyl)-5-oxo-1,2,4,5-tetrahydroimidazo[1,2-a]quinazoline-7-sulfonamide] it is 100 to 1000 nM; for `C#C[C@@H]1CN=C2N(Cc3cc(C)no3)C(=O)c3cc(S(=O)(=O)NC4(C)CC4)ccc3N21` [Example 10, (R)-1-ethynyl-N-(1-methylcyclopropyl)-4-((3-methylisoxazol-5-yl)methyl)-5-oxo-1,2,4,5-tetrahydroimidazo[1,2-a]quinazoline-7-sulfonamide] it is at most 100 nM. As for `Cc1cc(CN2C(=O)c3cc(S(=O)(=O)NC4(C)CC4)ccc3N3C2=NC[C@@H]3C(C)C)on1` [Example 11, (S)-1-isopropyl-N-(1-methylcyclopropyl)-4-((3-methylisoxazol-5-yl)methyl)-5-oxo-1,2,4,5-tetrahydroimidazo[1,2-a]quinazoline-7-sulfonamide], the IC50 is over 10000 nM. For the molecule `Cc1cc(CN2C(=O)c3cc(S(=O)(=O)NC4(C)CC4)ccc3N3C2=NC[C@H]3C(C)C)on1` [Example 12, (R)-1-isopropyl-N-(1-methylcyclopropyl)-4-((3-methylisoxazol-5-yl)methyl)-5-oxo-1,2,4,5-tetrahydroimidazo[1,2-a]quinazoline-7-sulfonamide], the concentration for half-maximal inhibition (IC50) was 100 to 1000 nM. The figure for `CC[C@H]1CN=C2N(Cc3c(C)noc3C)C(=O)c3cc(S(=O)(=O)NC4(C)CC4)ccc3N21` [Example 13, (S)-4-((3,5-dimethylisoxazol-4-yl)methyl)-1-ethyl-N-(1-methylcyclopropyl)-5-oxo-1,2,4,5-tetrahydroimidazo[1,2-a]quinazoline-7-sulfonamide] is 1000 to 10000 nM; for `CC[C@@H]1CN=C2N(Cc3c(C)noc3C)C(=O)c3cc(S(=O)(=O)NC4(C)CC4)ccc3N21` [Example 14, (R)-4-((3,5-dimethylisoxazol-4-yl)methyl)-1-ethyl-N-(1-methylcyclopropyl)-5-oxo-1,2,4,5-tetrahydroimidazo[1,2-a]quinazoline-7-sulfonamide] it is at most 100 nM; for `C#C[C@H]1CN=C2N(Cc3cnc(C)s3)C(=O)c3cc(S(=O)(=O)NC4(C)CC4)ccc3N21` [Example 15, (S)-1-ethynyl-N-(1-methylcyclopropyl)-4-((2-methylthiazol-5-yl)methyl)-5-oxo-1,2,4,5-tetrahydroimidazo[1,2-a]quinazoline-7-sulfonamide] it is 100 to 1000 nM.

For `C#C[C@@H]1CN=C2N(Cc3cnc(C)s3)C(=O)c3cc(S(=O)(=O)NC4(C)CC4)ccc3N21` [Example 16, (R)-1-ethynyl-N-(1-methylcyclopropyl)-4-((2-methylthiazol-5-yl)methyl)-5-oxo-1,2,4,5-tetrahydroimidazo[1,2-a]quinazoline-7-sulfonamide], the IC50 was at most 100 nM.

Consider `Cc1ncc(CN2C(=O)c3cc(S(=O)(=O)NC4(C)CC4)ccc3N3C2=NC[C@@H]3C2CC2)s1` [Example 17, (S)-1-cyclopropyl-N-(1-methylcyclopropyl)-4-((2-methylthiazol-5-yl)methyl)-5-oxo-1,2,4,5-tetrahydroimidazo[1,2-a]quinazoline-7-sulfonamide], for which the IC50 was in the range of 100 to 1000 nM.

The molecule `Cc1ncc(CN2C(=O)c3cc(S(=O)(=O)NC4(C)CC4)ccc3N3C2=NC[C@H]3C2CC2)s1` [Example 18, (R)-1-cyclopropyl-N-(1-methylcyclopropyl)-4-((2-methylthiazol-5-yl)methyl)-5-oxo-1,2,4,5-tetrahydroimidazo[1,2-a]quinazoline-7-sulfonamide] displayed a concentration for half-maximal inhibition (IC50) of at most 100 nM. As for `Cc1ncc(CN2C(=O)c3cc(S(=O)(=O)NC4(C)CC4)ccc3N3C2=NC[C@@H]3C(C)C)s1` [Example 19, (S)-1-isopropyl-N-(1-methylcyclopropyl)-4-((2-methylthiazol-5-yl)methyl)-5-oxo-1,2,4,5-tetrahydroimidazo[1,2-a]quinazoline-7-sulfonamide], the figure is over 10000 nM; as for `Cc1ncc(CN2C(=O)c3cc(S(=O)(=O)NC4(C)CC4)ccc3N3C2=NC[C@H]3C(C)C)s1` [Example 20, (R)-1-isopropyl-N-(1-methylcyclopropyl)-4-((2-methylthiazol-5-yl)methyl)-5-oxo-1,2,4,5-tetrahydroimidazo[1,2-a]quinazoline-7-sulfonamide], at most 100 nM.

These data come from patent US12435092B2, “Substituted imidazo[1,2-A]quinazolines as inhibitors of PARG” (858 Therapeutics, Inc., priority 2022, dated 2025).
